The results in this text go back to ChEMBL document CHEMBL4602715, “Efficacy and Tolerability of Pyrazolo[1,5-a]pyrimidine RET Kinase Inhibitors for the Treatment of Lung Adenocarcinoma” (ACS Med Chem Lett, 2020).

A short description of data set [1]: Clearance in BALB/c mouse at 2 mg/kg, iv measured upto 24 hrs by LC-MS/MS analysis. The format is ADME, organism-based. The settings on record: in vivo.
For data set [2], the target named is T1, Voltage-gated inwardly rectifying potassium channel KCNH2 (Homo sapiens, UniProt Q12809). The experiment in a line: Inhibition of human ERG expressed in human embryonic kidney cells by manual patch clamp assay. Type of data set: cell-based. Background: The patch-clamp technique gives a direct electrical read-out from membranes.
Data set [3] is described as follows: Toxicity in Harlan Foxn1 nude mouse xenografted with rat RIE cells transfected with KIF5B/RET assessed as lungs hemorrhaging at 10 to 60 mg/kg, po administered bid for 8 days. The format is organism-based. Particulars: in vivo, 192 h.
Data set [4] is described as follows: Toxicity in Harlan Foxn1 nude mouse xenografted with rat RIE cells transfected with KIF5B/RET assessed as hypothermia at 3 mg/kg, po administered bid for 8 days. The format is organism-based. The settings on record: in vivo, 192 h.
The nature of data set [5]: Half life in BALB/c mouse at 2 mg/kg, iv measured upto 24 hrs by LC-MS/MS analysis. Particulars: in vivo. Type of data set: ADME, organism-based.
Data set [6] can be described thus: Cmax in BALB/c mouse at 10 mg/kg, po measured upto 24 hrs by LC-MS/MS analysis. The format is ADME, organism-based. Further details: dose 10 mg/kg, route oral. Particulars: in vivo.
The nature of data set [7]: Oral bioavailability in BALB/c mouse at 10 mg/kg measured upto 24 hrs by LC-MS/MS analysis. The format is ADME, organism-based. Particulars: in vivo.
The nature of data set [8]: Toxicity in Harlan Foxn1 nude mouse xenografted with rat RIE cells transfected with KIF5B/RET assessed as hypothermia at 10 to 60 mg/kg, po administered bid for 8 days. Type of data set: organism-based. Particulars: in vivo, 192 h.
A short description of data set [9]: AUC in BALB/c mouse at 2 mg/kg, iv measured upto 24 hrs by LC-MS/MS analysis. Further details: dose 2 mg/kg, time < 24 hr, route intravenous. The settings on record: in vivo. The format is ADME, organism-based.
A short description of data set [10]: AUC in BALB/c mouse at 10 mg/kg, po measured upto 24 hrs by LC-MS/MS analysis. The format is ADME, organism-based. Also noted: dose 10 mg/kg, time < 24 hr, route oral. The settings on record: in vivo.
In data set [11] the target is T1, Voltage-gated inwardly rectifying potassium channel KCNH2. The experiment in a line: Displacement of [3H]-dofetilide from human ERG expressed in CHO cells incubated for 90 mins by microbeta scintillation counting method. Type of data set: cell-based.
The nature of data set [12]: Cmax in BALB/c mouse at 2 mg/kg, iv measured upto 24 hrs by LC-MS/MS analysis. Type of data set: ADME, organism-based. Also noted: dose 2 mg/kg, route intravenous. Particulars: in vivo.
Data set [13] is described as follows: Toxicity in Harlan Foxn1 nude mouse xenografted with rat RIE cells transfected with KIF5B/RET assessed as lungs hemorrhaging at 3 mg/kg, po administered bid for 8 days. Type of data set: organism-based. Particulars: in vivo, 192 h.
In data set [14] the test system is LC-2-ad. Kind of data set: Cytotoxicity against human LC2/ad cells assessed as reduction in cell viability incubated for 6 days by CellTiter Glo assay. The format is cell-based. The settings on record: 144 h.
A short description of data set [15]: Half life in BALB/c mouse at 10 mg/kg, po measured upto 24 hrs by LC-MS/MS analysis. Type of data set: ADME, organism-based. Particulars: in vivo.
Data set [16] can be described thus: Volume of distribution at steady state in BALB/c mouse at 2 mg/kg, iv measured upto 24 hrs by LC-MS/MS analysis. Type of data set: ADME, organism-based. Particulars: in vivo, read-out: Vdss.
The test system of data set [17] is BaF3. Kind of data set: Cytotoxicity against mouse BA/F3 cells assessed as reduction in cell viability incubated for 48 hrs by brightglo-luciferase reporter gene assay. The format is cell-based. The settings on record: BaF3, 48 h. In general terms: In a reporter assay the amount or activity of a reporter protein is the signal.
Data set [18] can be described thus: Aqueous solubility of compound at pH 6.8 incubated for 24 hrs by HPLC/UV analysis. The format is physicochemical.
Data set [19] deals with Bcr/Abl fusion protein (Homo sapiens, UniProt P00519). The experiment in a line: Inhibition of BCR/ABL (unknown origin) transfected in mouse Ba/F3 cells assessed as reduction in cell viability incubated for 48 hrs by brightglo-luciferase reporter gene assay. Type of data set: cell-based, BaF3.
The test system of data set [20] is Rattus norvegicus. Kind of data set: Antitumor activity against rat RIE cells transfected with KIF5B/RET xenografted in Harlan Foxn1 nude mouse assessed as tumor regression at 10 mg/kg, po qd for 10 days. The format is functional, organism-based.
Data set [21] relates to Rattus norvegicus. The experiment in a line: Antitumor activity against rat RIE cells transfected with KIF5B/RET xenografted in Harlan Foxn1 nude mouse assessed as tumor growth inhibition at 1 mg/kg, po qd for 10 days. The format is functional, organism-based.
For data set [22], the system named is Mus musculus. The experiment in a line: In vivo inhibition of KIF5B/RET transfected in rat RIE cells xenografted in Harlan Foxn1 nude mouse assessed as reduction in intratumoral RET phosphorylation at 1 to 3 mg/kg, po qd for 10 days and measured after 5 hrs post-last dose by Western blot analysis. Type of data set: functional, organism-based. (A western blot detects proteins with antibodies after separation by electrophoresis.)

Data set [23] concerns Rattus norvegicus. Kind of data set: Antitumor activity against rat RIE cells transfected with KIF5B/RET xenografted in Harlan Foxn1 nude mouse assessed as tumor regression at 10 to 60 mg/kg, po qd for 14 days. Type of data set: functional, organism-based.
The subject of data set [24] is Rattus norvegicus. Kind of data set: Antitumor activity against rat RIE cells transfected with KIF5B/RET xenografted in Harlan Foxn1 nude mouse assessed as tumor stasis at 3 mg/kg, po qd for 10 days. Type of data set: functional, organism-based.
In data set [25] the test system is Rattus norvegicus. The experiment in a line: Antitumor activity against rat RIE cells transfected with KIF5B/RET xenografted in Harlan Foxn1 nude mouse assessed as reduction in visible vasculature at 10 to 60 mg/kg, po qd for 14 days. Type of data set: functional, organism-based.
The test system of data set [26] is Mus musculus. Kind of data set: In vivo inhibition of KIF5B/RET transfected in rat RIE cells xenografted in Harlan Foxn1 nude mouse assessed as reduction in intratumoral RET phosphorylation at 1 to 3 mg/kg, po qd for 10 days and measured after 24 hrs post-last dose by Western blot analysis. Type of data set: functional, organism-based.
In data set [27] the test system is LC-2-ad. Kind of data set: Antitumor activity against human LC2/ad cells xenografted in NSG mouse assessed as reduction in tumor volume at 10 mg/kg, po qd for 21 days measured following cessation of drug treatment. Type of data set: functional, organism-based.

In brackets after ≈: the same amount, converted by molar mass. Activity calls are given as the source filed them. The rule behind the calls is not given here. Where only a bound is given, the exact number is not on record here.

Sequence of Bcr/Abl fusion protein (P00519 whole entry, the tested form may be a part): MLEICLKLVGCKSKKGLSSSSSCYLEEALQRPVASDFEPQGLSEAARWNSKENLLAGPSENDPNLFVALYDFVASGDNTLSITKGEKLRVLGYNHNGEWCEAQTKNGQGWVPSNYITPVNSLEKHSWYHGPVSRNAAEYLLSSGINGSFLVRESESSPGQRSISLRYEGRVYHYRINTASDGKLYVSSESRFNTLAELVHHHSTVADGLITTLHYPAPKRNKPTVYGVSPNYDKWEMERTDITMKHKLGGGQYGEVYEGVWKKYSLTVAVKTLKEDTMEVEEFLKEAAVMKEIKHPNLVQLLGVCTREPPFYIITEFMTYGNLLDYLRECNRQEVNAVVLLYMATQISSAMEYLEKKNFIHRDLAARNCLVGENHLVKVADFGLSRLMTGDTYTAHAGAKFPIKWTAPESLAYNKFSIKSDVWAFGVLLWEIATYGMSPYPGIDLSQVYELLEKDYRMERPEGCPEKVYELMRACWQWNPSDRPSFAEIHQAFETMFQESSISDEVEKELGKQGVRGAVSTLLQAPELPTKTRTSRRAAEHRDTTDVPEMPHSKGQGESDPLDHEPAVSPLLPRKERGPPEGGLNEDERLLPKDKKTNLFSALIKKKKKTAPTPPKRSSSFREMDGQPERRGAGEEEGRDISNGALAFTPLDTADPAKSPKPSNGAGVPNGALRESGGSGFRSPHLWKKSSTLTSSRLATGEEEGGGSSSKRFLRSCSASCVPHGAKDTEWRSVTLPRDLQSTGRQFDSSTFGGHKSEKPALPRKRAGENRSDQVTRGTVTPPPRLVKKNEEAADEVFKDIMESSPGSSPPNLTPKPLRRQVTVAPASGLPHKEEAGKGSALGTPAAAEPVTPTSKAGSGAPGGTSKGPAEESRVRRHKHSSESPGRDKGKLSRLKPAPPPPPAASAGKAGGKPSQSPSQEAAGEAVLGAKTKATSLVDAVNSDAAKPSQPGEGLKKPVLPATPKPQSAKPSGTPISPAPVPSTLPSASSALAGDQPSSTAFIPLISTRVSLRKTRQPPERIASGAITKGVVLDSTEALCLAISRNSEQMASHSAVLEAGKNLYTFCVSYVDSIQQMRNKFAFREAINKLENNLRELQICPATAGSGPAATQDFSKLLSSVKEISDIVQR
Sequence of Bcr/Abl fusion protein (P11274 whole entry, further chain, the tested form may be a part): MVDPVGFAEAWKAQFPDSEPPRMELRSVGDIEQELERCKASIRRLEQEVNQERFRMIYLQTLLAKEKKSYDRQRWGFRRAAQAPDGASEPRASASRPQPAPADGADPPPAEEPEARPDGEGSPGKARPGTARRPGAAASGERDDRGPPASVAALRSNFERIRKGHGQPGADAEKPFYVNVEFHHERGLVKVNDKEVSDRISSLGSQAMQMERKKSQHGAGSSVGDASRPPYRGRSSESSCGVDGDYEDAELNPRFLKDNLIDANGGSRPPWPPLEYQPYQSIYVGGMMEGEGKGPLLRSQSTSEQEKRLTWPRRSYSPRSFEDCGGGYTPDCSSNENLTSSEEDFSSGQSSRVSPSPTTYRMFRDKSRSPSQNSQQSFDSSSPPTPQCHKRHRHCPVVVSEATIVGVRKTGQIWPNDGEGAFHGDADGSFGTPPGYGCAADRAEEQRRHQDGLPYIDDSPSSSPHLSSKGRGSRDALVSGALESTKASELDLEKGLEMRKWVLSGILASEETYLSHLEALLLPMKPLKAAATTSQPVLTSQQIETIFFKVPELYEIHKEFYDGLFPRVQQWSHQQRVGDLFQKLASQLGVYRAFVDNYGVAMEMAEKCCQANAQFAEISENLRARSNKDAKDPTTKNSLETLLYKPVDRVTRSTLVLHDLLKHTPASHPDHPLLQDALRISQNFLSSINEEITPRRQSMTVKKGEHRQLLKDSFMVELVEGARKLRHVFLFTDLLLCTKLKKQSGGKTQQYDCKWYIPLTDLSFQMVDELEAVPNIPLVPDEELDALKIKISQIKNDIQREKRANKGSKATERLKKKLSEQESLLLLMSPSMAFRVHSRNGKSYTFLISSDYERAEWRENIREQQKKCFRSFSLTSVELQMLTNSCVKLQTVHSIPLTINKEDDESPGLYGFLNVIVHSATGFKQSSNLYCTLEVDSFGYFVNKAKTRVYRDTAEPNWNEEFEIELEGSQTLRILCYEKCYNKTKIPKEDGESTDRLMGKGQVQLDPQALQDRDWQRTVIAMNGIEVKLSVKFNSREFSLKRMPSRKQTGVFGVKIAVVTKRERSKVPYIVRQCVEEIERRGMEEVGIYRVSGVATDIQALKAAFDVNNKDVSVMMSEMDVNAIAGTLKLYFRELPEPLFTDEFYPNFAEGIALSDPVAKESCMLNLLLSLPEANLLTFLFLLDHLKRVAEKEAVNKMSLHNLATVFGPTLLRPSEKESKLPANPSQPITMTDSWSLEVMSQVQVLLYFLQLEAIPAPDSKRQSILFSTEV
T1 sequence (Q12809 whole entry): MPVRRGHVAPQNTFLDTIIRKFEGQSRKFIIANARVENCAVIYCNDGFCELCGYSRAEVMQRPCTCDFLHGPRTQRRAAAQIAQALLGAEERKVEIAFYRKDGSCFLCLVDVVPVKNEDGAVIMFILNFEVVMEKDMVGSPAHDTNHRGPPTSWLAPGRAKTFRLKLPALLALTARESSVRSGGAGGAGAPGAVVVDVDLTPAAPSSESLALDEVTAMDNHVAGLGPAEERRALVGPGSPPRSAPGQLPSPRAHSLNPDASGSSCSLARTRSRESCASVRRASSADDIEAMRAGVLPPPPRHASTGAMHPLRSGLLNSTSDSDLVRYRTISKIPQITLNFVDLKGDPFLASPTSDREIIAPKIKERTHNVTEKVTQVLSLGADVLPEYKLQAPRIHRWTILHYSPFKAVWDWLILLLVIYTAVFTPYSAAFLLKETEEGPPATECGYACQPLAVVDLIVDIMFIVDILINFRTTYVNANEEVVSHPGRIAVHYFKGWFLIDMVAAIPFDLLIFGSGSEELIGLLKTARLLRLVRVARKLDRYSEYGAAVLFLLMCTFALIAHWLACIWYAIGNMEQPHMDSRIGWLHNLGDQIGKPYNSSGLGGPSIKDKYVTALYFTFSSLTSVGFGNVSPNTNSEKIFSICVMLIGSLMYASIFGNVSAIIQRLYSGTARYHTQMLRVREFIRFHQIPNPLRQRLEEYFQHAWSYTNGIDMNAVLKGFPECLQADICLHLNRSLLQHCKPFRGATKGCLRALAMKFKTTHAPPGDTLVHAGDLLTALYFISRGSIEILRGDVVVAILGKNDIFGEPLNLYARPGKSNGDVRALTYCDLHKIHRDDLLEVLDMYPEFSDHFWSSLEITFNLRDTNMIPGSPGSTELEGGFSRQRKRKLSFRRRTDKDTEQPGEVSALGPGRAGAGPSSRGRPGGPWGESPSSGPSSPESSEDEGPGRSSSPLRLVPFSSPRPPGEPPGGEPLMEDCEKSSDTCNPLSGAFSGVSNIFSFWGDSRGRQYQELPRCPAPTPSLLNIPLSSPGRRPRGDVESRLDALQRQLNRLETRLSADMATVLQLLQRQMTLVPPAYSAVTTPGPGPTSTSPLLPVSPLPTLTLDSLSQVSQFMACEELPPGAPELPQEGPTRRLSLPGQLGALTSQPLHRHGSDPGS

A word on the clearance: it is a measure of how efficiently the substance is removed, as volume per time. Read a high clearance as efficient removal. A word on the IC50: it is the concentration at which inhibition is half-maximal. As a reminder, the half-life is how long it takes for the measured level to halve. High values mean slow loss, low ones fast loss. One may read the Cmax as the highest concentration seen after dosing. As a reminder, the bioavailability is dose-corrected exposure relative to a reference, in per cent. High values mean much systemic uptake, low ones little systemic uptake. As usually defined, the AUC is the area under the concentration-time curve, a measure of exposure. A low value points to less exposure. `COC(=O)N1CCN(C(=O)c2ccc(-c3cnn4c(N)c(-c5ccccc5)c(NC5CC(C)(C)N(C)C(C)(C)C5)nc34)cc2)CC1` came in with a clearance in data set [1] of 19 mL/min/kg. The IC50 entry in data set [2] was “Not Active”; in data set [11], 7.5 µM; in data set [14], 1.3 µM. Further, the Activity entry in data set [3] was “Toxic”; in [4] it was “Non-Toxic”; in [8], “Toxic”; in data set [13] it was “Non-Toxic”. In addition, the half-life in data set [5] and in [15] was 3.7 h throughout. The Cmax in [6] came out at 820 nM; in data set [12], 940 nM. In addition, the bioavailability in [7] is 62%. Moreover, the AUC at 24 h came to 2.8 µM·h in [9] and 8.7 µM·h in [10]. In addition, the Vd in [16] stood at 5.1 L/kg.

Broadly, the solubility is how much of the substance goes into solution per volume. A high value points to much dissolved substance. As to `COc1ccc(-c2cnn3c(N)c(-c4ccccc4)c(OC4CCN(C)CC4)nc23)cc1OC`, the IC50 in [17] is more than 11 µM; in data set [19], 0.87 µM; in data set [14] it was 1.6 µM. For the same compound, the solubility at 24 h in data set [18] turned out to be 7.1 µM (≈ 3.26 µg/mL).

As to `COC(=O)Nc1ccc(-c2c(OC3CCN(C)CC3)nc3c(-c4ccc(OC)c(OC)c4)cnn3c2N)cc1`, the figures for the IC50 in data set [17] and in data set [19] were 5 µM and 5.1 µM, respectively.

With `COc1ccc(-c2cnn3c(N)c(-c4ccccc4)c(OC4CCNCC4)nc23)cc1OC`, the solubility at 24 h in data set [18] was determined as 47 µM (≈ 20.9 µg/mL). Further, the IC50 in [14] came out at 2.7 µM.

Compound `COc1ccc(-c2cnn3c(N)c(-c4ccccc4)c(OCCCN(C)C)nc23)cc1OC` came in with a solubility at 24 h in data set [18] of 88 µM (≈ 39.4 µg/mL). In addition, the IC50 in [14] is 2.8 µM.

Turning to `COc1ccc(-c2cnn3c(N)c(-c4ccccc4)c(NC4CC(C)(C)N(C)C(C)(C)C4)nc23)cc1OC`, the outcome in data set [20], in [21], in data set [23], in data set [24], in [25] and in data set [27] was Active. The inhibition entry in data set [22] was “Active”. Further, the inhibition result in data set [26] was “inactive”.
